The subject of test [1] is rats. The test is described as follows: Hyperalgesia induced by intraplantar injection of capsaicin; PP, HP, PI tests. Format: in vivo, rat. The procedure: Injection of capsaicin (10 μg in 50 μl of a 10% solution of Tween 20 in olive oil) produced hyperalgesia, whose peak was at three to six hours after injection and which disappeared at the end of 24 hours. Mechanical hyperalgesia was evaluated using the paw pressure test (PP), which consists in applying a constant pressure of 0.2 kg/cm on the dorsal part of the hind paw. The time lapsed between the application of the pressure and the nociceptive reflex of retraction of the paw was considered as the latency time (or threshold) of mechanical nociceptive. Thermal hyperalgesia was evaluated using the hot-plate (HP) test and the paw immersion (PI) test.
The HP and PI tests were done as in Example 1, the hot-plate having a temperature 52.5±0.3° C. and the hot water container at 48±0.3° C.
The PP and PI tests were done one after the other on the two hind paws observing an interval of five minutes between two consecutive tests.
The rats were sent to the laboratory one week prior to injection so that they would become accustomed to the environment and the tests were done on the rats over two or three days in order to obtain the baseline value for each test before any treatment (detailed description in Kanaan S. A. et al., 1996, Endotoxin-induced local inflammation and hyperalgesia in rats and mice: a new model for inflammatory pain, Pain, 66:373-379).
In the course of the experiments involving the injection […]. of capsaicin, the mean of the measurements done using each pain test (PP, HP or PI) was calculated for each group of rats prior to the injection of the capsaicin (baseline condition) and at different time intervals after injection (3, 6, 9 and 24 hours). TAP was injected (i.p.) thirty minutes before the capsaicin and the latency times of the different pain tests were measured at the same intervals of time after injection of the capsaicin.

Test [2] deals with rats. Kind of test: SNI (spared nerve injury) mononeuropathy: allodynia and hyperpathy. Format: in vivo, rat. The method, then: Adult male Sprague-Dawley rats (250-300 g) were used for these trials. Over the period of the experiments, the rats were placed under standard conditions (4 to 5 individuals to a cage, 12 hour day/night cycle, 22.2° C.), with free access to water and food. The necessary surgical procedures were done under deep anesthesia using ketamine (Ketalar®, 40-50 mg/kg, intraperitoneal injection), preceded by pre-anesthesia using chlorpromazine (8 mg/kg, idem) and atropine (0.05 mg/kg, idem).
Mononeuropathy was induced in different groups of rats (n=6 rats in each group) according to the CCI (chronic constriction injury, chronic nerve constriction, Bennet G. J. et Xie Y. K., 1988, A peripheral mononeuropathy in rat that produces disorders of pain sensation like those seen in man, Pain, 33:87-107) or according to the SNI (spared nerve injury, spared nerve of the enervated paw, Decosterd I. et Woolf C. J., 2000, Spared nerve injury: an animal model of persistent peripheral neuropathic pain, Pain, 87:149-158). The sciatic nerve was exposed after dissection of the posterior hip and by incision through the skin and the fatty layer covering the popliteal fossa. For the CCI model, four loose ligatures (chromed catgut 4.0) were placed on the proximal side of the sciatic trifurcation. For the SNI model, the external popliteal sciatic nerve and the internal popliteal sciatic nerve were isolated, tightly ligatured and sectioned, while the sural nerve innervating the lateral aspect of the paw was left intact.
The rats were placed in individual compartments of one cage, whose floor was made of a metal grating allowing access to the heel pad and to the lateral aspect of the paw with wires.
For mechanical allodynia, the plantar surface of the hind paws (lateral surface for the SNI model and the median plantar surface for the CCI) was contacted with the von Frey wires (VFF 4.31 and 5.07, Stoelting Co., USA), which corresponded to the forces of 2.041 and 11.749 g (18.5 and 106.7 mN), respectively. […] The number of paw retractions induced by 10 trials was established for each rat on each hind paw prior to (baseline) and after induction of the mono-neuropathy. In normal rats, the low caliber wires (VFF 4.31) and higher caliber (VFF 5.07) induced an average 1.3±0.2 and 2.7±0.3 responses/10 trials, respectively.
The method described by Choi et al. (1994, Behavioral signs of ongoing pain and cold allodynia in a rat model of neuropathic pain, Pain, 59:369-376) was used for evaluation of cold allodynia. It consists of applying several drops (approximately 50 μl) of an acetone solution on the paw and measuring the duration of the retraction reaction. One half second and 20 seconds are the values chosen arbitrarily for the minimum and maximum threshold, respectively.
The duration (D) of retraction of the paw (RP) in response to a nociceptive ray of radiant heat oriented towards the plantar surface was established in the normal rat. […] the DRP after induction of the mononeuropathy was considered to be an indication of hyperalgesia. Each rat underwent two RP tests per session a minimum of every five minutes.
The neuropathic manifestations were at maximum seven to ten days after induction of the neuropathy. The effects of the injections of TAP were tested during this period, which corresponds to the peak of the neuropathy.
During the experiments done on rats suffering from neuropathy, allodynia and hyperpathy were evaluated in each group of animals with reference to the baseline condition established prior to induction of mononeuropathy. For example, the average of the number of paw withdrawal induced by each VFF was calculated for all of the rats of each group and the variation of this mean has been determined after treatment with TAP at different time periods after the injection. The same method has been followed for allodynia in the code and the hypertrophy relative to heat.

Where [3] appears, read: SNI, meloxican 5 mg/kg i.p., morphine 4 mg/kg i.p., at peak of activity 45-60 minutes after injection, FIG. 10.

As to “Glu-Ala-lys-Ser-Gln-Gly-Gly-Ser-Asp (SQGGSD; N-terminal Glu-Ala-Lys; printed: Ser-Gln-Gly-Gly-Ser-Asp) [TAP]”, in the test with rats [1] (TAP 25 μg, no capsaicin, FIG. 8 controls), the “modification of latency times in the pain tests, TAP alone” value is recorded as “did not result in significant modification”. Besides, in the test with rats [1] (TAP highest dose i.p. before capsaicin 10 μg i.pl.), the “effect on capsaicin-induced hyperalgesia at the more elevated dose” value was “complete prevention”. For the same substance, in the test with rats [1] (TAP i.p. 1.5 or 25 μg/rat thirty minutes before capsaicin 10 μg, FIG. 8), the “effect on hyperalgesia induced by intraplantar capsaicin” value is listed as “dose-dependent attenuation”. Further, in the test with rats [2] (SNI, TAP 5 μg i.p.), the “reversibility of the effects, time after injection” value is “three to four hours” and the “time of maximum effect on all of the neuropathic manifestations after injection” value came out at 75 min. Besides, in the test on rats [2] (SNI, doses 1, 5 and 25 μg compared, FIG. 7), the “dose giving maximal attenuation of the neuropathic manifestations” value amounted to 5 μg/rat. For the same substance, in the test with rats [2] (setting [3]), the “reduction of tactile allodynia compared with meloxican and morphine” value is given as “greater reduction”; the “reduction of thermal hyperalgesia compared with meloxican and morphine” value is “greater reduction”. In the test with rats [2] (TAP 5 μg i.p., single injection), the “effect on cold allodynia, SNI model” value was “only moderately reduced”. Further, in the test on rats [2] (TAP 5 μg in 100 μl i.p., FIG. 6), the “effect on neuropathic manifestations, SNI model” value is “significant attenuation”.

The values above are taken from patent US20050261194A1, “Use of thymulin-like peptides for making pain-relieving medicines” (priority 2001, published 2005).
